{
  "source": "patent US8802634B2",
  "about": "“CD40-L Inhibitory Peptides” (Phylogica Limited, priority 2008, dated 2014)",
  "target": "CD40L-induced CD86 expression on primary B-cells (Homo sapiens, UniProt P29965)",
  "sequence (P29965 whole entry)": "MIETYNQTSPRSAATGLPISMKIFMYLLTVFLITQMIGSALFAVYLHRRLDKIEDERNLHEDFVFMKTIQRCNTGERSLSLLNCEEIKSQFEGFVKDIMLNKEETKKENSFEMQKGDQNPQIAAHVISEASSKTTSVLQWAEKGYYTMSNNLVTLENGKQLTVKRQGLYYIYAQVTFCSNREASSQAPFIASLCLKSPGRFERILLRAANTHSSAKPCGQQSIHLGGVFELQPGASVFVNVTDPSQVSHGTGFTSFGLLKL",
  "sequence (P25942 21-277 partner)": "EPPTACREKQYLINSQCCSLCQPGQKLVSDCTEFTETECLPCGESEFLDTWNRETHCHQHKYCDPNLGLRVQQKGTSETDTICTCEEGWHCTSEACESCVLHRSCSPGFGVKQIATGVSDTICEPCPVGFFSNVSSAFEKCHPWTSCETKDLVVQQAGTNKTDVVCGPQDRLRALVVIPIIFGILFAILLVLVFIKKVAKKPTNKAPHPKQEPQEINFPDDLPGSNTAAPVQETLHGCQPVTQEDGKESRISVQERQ",
  "test": "Inhibition of CD40L-induced CD86 expression on primary B-cells (FACS)",
  "type": "cell-based",
  "conditions": "for inhibition of CD40L-induced CD86 expression (qualitative): figure legends",
  "description": "In one example, the ability of a peptide, analog or derivative of the invention to inhibit or reduce or delay expression of CD86 on primary B-cells was determined in the presence and absence of the peptides, analogs and derivatives of the invention. In particular, CD86 expression was determined by FACS.\nIn these assays, CD40L induced CD86 expression in a concentration-dependent manner in the absence of a peptidyl inhibitor of the present invention with an EC50 value of about 9 nM (FIG. 6d, 6e). As a control in these assays, LPS-induced expression of CD86 mediated by the Toll-like receptors TLR 2/4, and TNFα-induced cytoxicity, were also assayed to exclude effects mediated by ligands other than CD40L.\nIn a similar series of bioassays, dimeric forms of the CD40L peptide inhibitors were also tested for their ability to inhibit or reduce CD40L-induced expression of CD86 on primary B-cells.",
  "note": "Where a SMILES comes first, the peptide text is derived from it. [ ]: non-standard residue; d: D form.",
  "data": [
    {"compound": "CC[C@H](C)[C@H](NC(=O)[C@H](CO)NC(=O)[C@H](Cc1c[nH]c2ccccc12)NC(=O)[C@H](CCC(N)=O)NC(=O)[C@@H](NC(=O)[C@@H]1CCCN1C(=O)[C@H](Cc1ccccc1)NC(=O)[C@H](Cc1ccccc1)NC(=O)[C@H](Cc1c[nH]c2ccccc12)NC(=O)CNC(=O)[C@H](Cc1ccc(O)cc1)NC(=O)[C@H](CCCCN)NC(=O)[C@H](CC(C)C)NC(=O)[C@@H](NC(=O)[C@H](Cc1c[nH]cn1)NC(=O)[C@H](CO)NC(=O)[C@H](CCCNC(=N)N)NC(=O)[C@H](Cc1ccc(O)cc1)NC(=O)[C@@H]1CCCN1C(=O)[C@@H](NC(=O)[C@H](Cc1ccccc1)NC(=O)[C@@H]1CCCN1C(=O)[C@@H](N)CC(C)C)C(C)C)C(C)C)C(C)C)C(=O)N[C@@H](Cc1ccccc1)C(=O)N[C@@H](C)C(=O)N[C@H](C(=O)N[C@@H](CC(C)C)C(=O)N1CCC[C@H]1C(=O)N[C@@H](Cc1ccccc1)C(=O)N[C@@H](CCC(N)=O)C(=O)N[C@@H](Cc1ccc(O)cc1)C(=O)N[C@@H](CC(C)C)C(=O)N[C@@H](Cc1c[nH]cn1)C(=O)N[C@@H](CCCNC(=N)N)C(=O)N[C@@H](CS)C(=O)N[C@@H](CCCNC(=N)N)C(=O)O)C(C)C", "note": "[CD40L M1_18] (H-LPFVPYRSHVLKYGWFFPVQWSIFAVLPFQYLHRCR-OH; N-terminus and C-terminus assumed)", "values": [
      {"measurement": "inhibition of CD40L-induced CD86 expression (qualitative)", "result": "concentration-dependent inhibition"},
      {"measurement": "IC50", "setting": "monomeric peptide, concentration-dependent", "result": "< 500", "unit": "nM"}
    ]},
    {"compound": "CC[C@@H](C)[C@@H](NC(=O)[C@@H](Cc1ccccc1)NC(=O)[C@@H](C)NC(=O)[C@H](NC(=O)[C@@H](CC(C)C)NC(=O)[C@H]1CCCN1C(=O)[C@@H](Cc1ccccc1)NC(=O)[C@@H](CCC(N)=O)NC(=O)[C@@H](Cc1ccc(O)cc1)NC(=O)[C@@H](CC(C)C)NC(=O)[C@@H](Cc1c[nH]cn1)NC(=O)[C@@H](CCCNC(=N)N)NC(=O)[C@@H](CS)NC(=O)[C@H](N)CCCNC(=N)N)C(C)C)C(=O)N[C@H](CO)C(=O)N[C@H](Cc1c[nH]c2ccccc12)C(=O)N[C@H](CCC(N)=O)C(=O)N[C@@H](C(=O)N1CCC[C@@H]1C(=O)N[C@H](Cc1ccccc1)C(=O)N[C@H](Cc1ccccc1)C(=O)N[C@H](Cc1c[nH]c2ccccc12)C(=O)NCC(=O)N[C@H](Cc1ccc(O)cc1)C(=O)N[C@H](CCCCN)C(=O)N[C@H](CC(C)C)C(=O)N[C@@H](C(=O)N[C@H](Cc1c[nH]cn1)C(=O)N[C@H](CO)C(=O)N[C@H](CCCNC(=N)N)C(=O)N[C@H](Cc1ccc(O)cc1)C(=O)N1CCC[C@@H]1C(=O)N[C@@H](C(=O)N[C@H](Cc1ccccc1)C(=O)N1CCC[C@@H]1C(=O)N[C@H](CC(C)C)C(=O)O)C(C)C)C(C)C)C(C)C", "note": "[CD40L M1_18rd] (H-[dR][dC][dR][dH][dL][dY][dQ][dF][dP][dL][dV][dA][dF][dI][dS][dW][dQ][dV][dP][dF][dF][dW]G[dY][dK][dL][dV][dH][dS][dR][dY][dP][dV][dF][dP][dL]-OH; N-terminus and C-terminus assumed)", "values": [
      {"measurement": "inhibition of CD40L-induced CD86 expression (qualitative)", "result": "enhanced inhibition"}
    ]},
    {"compound": "CC[C@H](C)[C@H](NC(=O)[C@H](CCC(N)=O)NC(=O)[C@H](Cc1ccccc1)NC(=O)[C@H](Cc1ccccc1)NC(=O)[C@H](CCC(=O)O)NC(=O)[C@H](CCCNC(=N)N)NC(=O)CNC(=O)[C@H](C)NC(=O)[C@H](C)NC(=O)[C@@H](N)CC(=O)O)C(=O)N[C@@H](C)C(=O)NCC(=O)N[C@@H](CC(C)C)C(=O)N[C@@H](Cc1ccccc1)C(=O)N[C@@H](CO)C(=O)N[C@@H](Cc1ccccc1)C(=O)N[C@@H](CCCNC(=N)N)C(=O)N[C@@H](Cc1c[nH]cn1)C(=O)N[C@@H](Cc1c[nH]cn1)C(=O)N[C@@H](Cc1c[nH]c2ccccc12)C(=O)N[C@@H](Cc1c[nH]c2ccccc12)C(=O)N[C@@H](CCC(N)=O)C(=O)N[C@@H](C)C(=O)O", "note": "[CD40L M1_30s] (H-DAAGREFFQIAGLFSFRHHWWQA-OH; N-terminus and C-terminus assumed)", "values": [
      {"measurement": "EC50", "setting": "PEGylated monomeric peptide, read-out: EC50 PEGylated peptide", "result": "> 2000", "unit": "nM"}
    ]}
  ]
}
